Data taken from PubChem BioAssay (NCI).
Where “and” joins values, the source holds several entries; their conditions need not be identical. Equal values may be shown once.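 48-hour exposure; five concentrations; linearly interpolated endpoints. The concentration for 50% growth inhibition is given as GI50. Definition used: TGI = concentration required for complete inhibition of growth.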

How the values were obtained:
Assay in all cases: growth of human tumour cells (NCI), 48 h
CAKI-1 renal = tested on: CAKI-1 renal
CCRF-CEM leukemia = tested on: CCRF-CEM leukemia
HL-60(TB) leukemia = tested on: HL-60(TB) leukemia
IGROV1 ovarian = tested on: IGROV1 ovarian
KM12 colon = tested on: KM12 colon
OVCAR-3 ovarian = tested on: OVCAR-3 ovarian
OVCAR-5 ovarian = tested on: OVCAR-5 ovarian
RXF 393 renal = tested on: RXF 393 renal
SF-295 CNS = tested on: SF-295 CNS
SK-MEL-5 melanoma = tested on: SK-MEL-5 melanoma
TK-10 renal = tested on: TK-10 renal
HOP-62 NSCLC = tested on: HOP-62 NSCLC

Structure (SMILES) | TGI (CAKI-1 renal) | TGI (CCRF-CEM leukemia) | TGI (HL-60(TB) leukemia) | TGI (IGROV1 ovarian) | TGI (KM12 colon) | TGI (OVCAR-3 ovarian) | TGI (OVCAR-5 ovarian) | TGI (RXF 393 renal) | TGI (SF-295 CNS) | TGI (SK-MEL-5 melanoma) | TGI (TK-10 renal) | TGI (HOP-62 NSCLC) | GI50 (CAKI-1 renal) | GI50 (HL-60(TB) leukemia) | GI50 (KM12 colon) | GI50 (OVCAR-5 ovarian) | GI50 (RXF 393 renal) | GI50 (SF-295 CNS) | GI50 (SK-MEL-5 melanoma) | GI50 (TK-10 renal)
NC(CCOCCP(=O)(O)CCOCCC(N)C(=O)O)C(=O)O (stereo unspecified) | > 100 µM | > 100 µM | > 100 µM | > 100 µM | > 100 µM | > 100 µM | > 100 µM | > 100 µM | > 100 µM | > 100 µM | > 100 µM | – | – | – | – | – | – | – | – | –
NC(Cc1ccccc1)(C(=O)O)C(=O)O | > 100 µM | > 100 µM | – | > 100 µM | > 100 µM | > 100 µM | > 100 µM | > 100 µM | > 100 µM | > 100 µM | > 100 µM | > 100 µM | – | – | – | – | – | – | – | –
CC(C)C1OC(/C=C/c2ccccc2)OCC1(C)C (stereo unspecified) | > 100 µM | 41.8 µM | 38.3 µM | > 100 µM | > 100 µM | 44.9 µM | > 100 µM | 42.3 µM | > 100 µM | 37.5 µM | 80.8 µM | > 100 µM | – | – | – | – | – | – | – | –
O=C1OCc2cccc3c2-c2c1cccc2C(=O)OC3 | > 100 µM | – | > 100 µM | > 100 µM | > 100 µM | > 100 µM | – | > 100 µM | > 100 µM | > 100 µM | > 100 µM | > 100 µM | – | – | – | – | – | – | – | –
N=C(N)SCc1cccc2c(=O)cc(-c3ccccc3)oc12 | 11.3 µM | 18.6 µM | 13.1 µM | 30.2 µM | 27.3 µM | 23.1 µM | 41.8 µM | 19.5 µM | 26.5 µM | 29.8 µM | 26.8 µM | 44.8 µM | – | – | – | – | – | – | – | –
C/C(=C\c1ccc(Cl)c(Cl)c1)[N+](=O)[O-] | 2.51 µM | – | 6.02 µM and 5.95 µM | 3.85 µM | 3.29 µM and 4.16 µM | 3.08 µM and 3.47 µM | 5.09 µM and 4.62 µM | 2.9 µM | 5.72 µM and 8.01 µM | 11.3 µM and 3.94 µM | 3.19 µM and 3.6 µM | 3.15 µM | 1.1 µM | 1.94 µM | 1.71 µM | 2.25 µM | 1.51 µM | 2.19 µM | 3.05 µM | 1.67 µM
COc1cccc(CC2Cc3ccccc3CC(=O)N2)c1 (stereo unspecified) | 68.6 µM | > 100 µM | > 100 µM | > 100 µM | > 100 µM | > 100 µM | > 100 µM | > 100 µM | > 100 µM | 54.6 µM | > 100 µM | 72.5 µM | – | – | – | – | – | – | – | –
O=C1/C(=C/c2ccc(Cl)cc2)N=C(c2ccccc2)N1c1ccc(S(=O)(=O)Nc2nccs2)cc1 | > 100 µM | 87 µM | 75.6 µM | – | > 100 µM | > 100 µM | > 100 µM | > 100 µM | > 100 µM | 66.6 µM | > 100 µM | > 100 µM | – | – | – | – | – | – | – | –
COc1ccc(Cc2nccc3cc(OC)c(OC)cc23)cc1OC | > 100 µM | > 100 µM | > 100 µM | > 100 µM | > 100 µM | > 100 µM | > 100 µM | – | > 100 µM | 99.3 µM | > 100 µM | > 100 µM | – | – | – | – | – | – | – | –
O=C(O)c1oc(C(=O)O)c(C(=O)O)c1C(=O)O | > 100 µM | > 100 µM | > 100 µM | > 100 µM | > 100 µM | > 100 µM | > 100 µM | > 100 µM | > 100 µM | > 100 µM | > 100 µM | > 100 µM | – | – | – | – | – | – | – | –
CCCCC(=O)Oc1ccc2c(C)cc(=O)oc2c1 | > 100 µM | > 100 µM | > 100 µM | > 100 µM | > 100 µM | > 100 µM | > 100 µM | > 100 µM | > 100 µM | > 100 µM | > 100 µM | > 100 µM | – | – | – | – | – | – | – | –
c1ccc(-c2nnc(-c3nsc4ccccc34)o2)cc1 | – | > 100 µM | > 100 µM | > 100 µM | > 100 µM | > 100 µM | > 100 µM | > 100 µM | – | > 100 µM | > 100 µM | > 100 µM | – | – | – | – | – | – | – | –
O=C(O)C12CCCC(CCC1)C2 | > 100 µM | > 100 µM | > 100 µM | > 100 µM | > 100 µM | > 100 µM | > 100 µM | > 100 µM | > 100 µM | > 100 µM | > 100 µM | > 100 µM | – | – | – | – | – | – | – | –
CCOC(=O)C1=C(C)N(NC(N)=O)C2(O)CCCC(=O)C12C (stereo unspecified) | > 100 µM | – | – | > 100 µM | > 100 µM | > 100 µM | > 100 µM | > 100 µM | > 100 µM | > 100 µM | > 100 µM | – | – | – | – | – | – | – | – | –
CCCCS(=O)(=O)Nc1ccc(Nc2c3ccccc3nc3ccccc23)c(OC)c1 | 10.1 µM | 6.26 µM | – | 24.9 µM | 14.8 µM | 16.3 µM | 26.6 µM | 11 µM | 9.84 µM | 18.1 µM | – | 10.7 µM | – | – | – | – | – | – | – | –
c1ccc(C[n+]2cccc(-c3cc4ccccc4[nH]3)c2)cc1 | > 100 µM | 38.6 µM | 40.5 µM | 42.6 µM | 32 µM | > 100 µM | > 100 µM | > 100 µM | > 100 µM | 23.8 µM | > 100 µM | 96.4 µM | – | – | – | – | – | – | – | –
